This note sets out measurements from ChEMBL document CHEMBL1201862, “PubChem BioAssay data set” (2004).

The structures appear in SMILES notation.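 A five-concentration, 48-hour dose response in 96-well plates underlies each endpoint, interpolated linearly between surrounding concentrations. Here, GI50 denotes the concentration required for 50% inhibition of growth.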 Active and inactive are the calls of the source. No stated cut-off is given here; in the data, active = GI50 up to about 1.1 µM and inactive = higher.

Among the test systems are DLD-1; LXFL 529; DMS-273; KM-20L2; M19-MEL; DMS-114; HOP-18; SNB-78; RXF 631.
Common to all, as to test: NCI tumour cell line growth inhibition, 48 h

On to `O=C(N/N=C1/C(=O)N(c2ccc(Cl)cc2Cl)C(=O)C(=O)C1c1nc2ccccc2o1)c1ccccc1O` (configuration not stated), for which the GI50 was 33 µM (inactive) in the assay on DLD-1; 37.6 µM (inactive) in the assay with LXFL 529; > 10 µM (inactive) in the assay on DMS-273; > 100 µM (inactive) in the assay with KM-20L2; 38.3 µM (inactive) in the assay on M19-MEL; 26.4 µM (inactive) in the assay with DMS-114.

Take `C=C[C@@H](C)[C@]1(C(=O)OC)CCCC12OCCO2`: the GI50 in the assay on DLD-1 was > 100 µM (inactive); in the assay on LXFL 529 it was > 100 µM (inactive); in the assay with DMS-273, 39.3 µM (inactive); with KM-20L2, > 100 µM (inactive); in the assay on M19-MEL, > 100 µM (inactive); in the assay on DMS-114, > 100 µM (inactive). For the same molecule, the GI50 in the assay on HOP-18 is > 100 µM (inactive).

As for `O=C(NC(=O)c1c(Cl)nc2sccn12)Nc1ccc(Cl)cc1`, the GI50 was > 48.3 µM (inactive) in the assay with DLD-1; 43.1 µM (inactive) in the assay on SNB-78; > 79.4 µM (inactive) with RXF 631; > 46.3 µM (inactive) in the assay with DMS-273; > 100 µM (inactive) in the assay with KM-20L2; > 100 µM (inactive) with M19-MEL. For the same molecule, the GI50 in the assay with DMS-114 was > 71.3 µM (inactive).

As for `C=CCC1(C)CCCCC1(O)C[S+]([O-])c1ccccc1` (configuration not stated), the GI50 in the assay with DLD-1, with SNB-78, in the assay on RXF 631, in the assay on DMS-273, in the assay with KM-20L2 and with M19-MEL was > 100 µM (inactive) in each case. Further, the GI50 in the assay with DMS-114 and in the assay on HOP-18 was > 100 µM (inactive) throughout.

As to `COc1cc(O)c(C(=O)CC(C)=O)c(OC)c1`, the GI50 in the assay on DLD-1, in the assay on SNB-78, with LXFL 529, in the assay on DMS-273, in the assay on KM-20L2 and in the assay with DMS-114 was > 100 µM (inactive) throughout. Besides, the GI50 with HOP-18 was > 100 µM (inactive).

As for `C=C1C(=O)OC2(C)C3CCC(C3)C12` (configuration not stated), the GI50 was 51.1 µM (inactive) in the assay on DLD-1; 34.4 µM (inactive) in the assay on SNB-78; 68.4 µM (inactive) with DMS-273; 45.1 µM (inactive) in the assay on KM-20L2; 44.8 µM (inactive) with M19-MEL; 46.6 µM (inactive) with DMS-114. The GI50 in the assay with HOP-18 is > 100 µM (inactive).

With `CCC1(O)C(=O)OCc2c1cc1n(c2=O)Cc2cc3c(N)cccc3nc2-1` (configuration not stated) [RS-9-Aminocamptothecin], the GI50 in the assay with DLD-1 was 0.859 µM (active); with SNB-78, 0.995 µM (active); in the assay on LXFL 529 it was 0.341 µM (active); in the assay with RXF 631, 0.0471 µM (active); in the assay on DMS-273, < 0.01 µM (active); in the assay with KM-20L2, 0.132 µM (active). Further, the GI50 was 0.0588 µM (active) with M19-MEL, < 0.0104 µM (active) in the assay with DMS-114 and 0.0424 µM (active) in the assay with HOP-18.

On to `O=C1C[C@@H]2C(COC(=O)c3ccccc3)N(OCc3ccccc3)C[C@@H]2O1` (some centres not stated), for which the GI50 with DLD-1, in the assay on SNB-78, in the assay on LXFL 529, with RXF 631, in the assay with DMS-273 and in the assay on KM-20L2 was > 100 µM (inactive) each time. For the same molecule, the GI50 in the assay with M19-MEL, in the assay on DMS-114 and in the assay with HOP-18 was > 100 µM (inactive) each time.

As to `O=C(CSC(=S)N1CCOCC1)Nc1nc2c(s1)CCCC2`, the GI50 in the assay on DLD-1 was > 100 µM (inactive); in the assay on SNB-78 it was > 100 µM (inactive); in the assay on LXFL 529 it was > 100 µM (inactive); in the assay with DMS-273, > 100 µM (inactive); with KM-20L2 it was > 100 µM (inactive); in the assay on M19-MEL, 92.5 µM (inactive). Moreover, the GI50 in the assay with DMS-114 was 30.1 µM (inactive).

For `O=c1ccc2ccc(O)c3c4c(O)ccc5ccc(=O)c(c1c23)c54`, the GI50 with DLD-1 is 1.64 µM (inactive); in the assay on DMS-273, 1.95 µM (inactive); in the assay on M19-MEL, 0.69 µM (active); in the assay on DMS-114, 1.51 µM (inactive); in the assay on HOP-18, 2.26 µM (inactive).

As to `CCCCCCCCCCCCC(SCCNC(=O)CCNC(=O)C(O)C(C)(C)COP(=O)(O)OP(=O)(O)OCC1OC(n2cnc3c(N)ncnc32)C(O)C1OP(=O)(O)O)C(=O)NCC(N)=O` (configuration not stated), the GI50 is > 100 µM (inactive) in the assay on DLD-1; > 100 µM (inactive) in the assay on LXFL 529; > 100 µM (inactive) in the assay on RXF 631; 41.3 µM (inactive) with DMS-273; > 100 µM (inactive) in the assay with KM-20L2; > 100 µM (inactive) in the assay with M19-MEL. The GI50 in the assay with DMS-114 was 95.1 µM (inactive); in the assay on HOP-18, 37.8 µM (inactive).

As for `COC(=O)C1(C)C=C(Nc2ccccc2)C(=O)N1c1ccccc1` (configuration not stated), the GI50 in the assay on DLD-1 was > 100 µM (inactive); with SNB-78, > 100 µM (inactive); in the assay on LXFL 529, > 100 µM (inactive); in the assay on RXF 631 it was 35.5 µM (inactive); in the assay with M19-MEL it was > 100 µM (inactive); with DMS-114, > 100 µM (inactive). The GI50 in the assay on HOP-18 is > 100 µM (inactive).

In the case of `N#CCCN(CCC#N)c1ccc(/C=N\c2nc(-c3ccccc3)cs2)cc1`, the GI50 in the assay on DLD-1, with SNB-78, in the assay with LXFL 529, with RXF 631, in the assay with DMS-273 and with KM-20L2 was > 100 µM (inactive) in each case. The GI50 was > 100 µM (inactive) in the assay with M19-MEL and 73.3 µM (inactive) with DMS-114.

As for `O=S(=O)(O)SC/C=C\CSS(=O)(=O)O`, the GI50 in the assay on DLD-1, with SNB-78, in the assay on LXFL 529, with RXF 631, in the assay on DMS-273 and in the assay on KM-20L2 was > 100 µM (inactive) each time. In addition, the GI50 in the assay with M19-MEL, with DMS-114 and in the assay on HOP-18 was > 100 µM (inactive) throughout.

Turning to `C1=NN(Cc2ccccc2)C(N(Cc2ccccc2)Cc2ccccc2)N1` (configuration not stated), the GI50 in the assay with DLD-1 was 21.1 µM (inactive); with SNB-78, 29.6 µM (inactive); in the assay on LXFL 529, 12.1 µM (inactive); in the assay with RXF 631, 16.1 µM (inactive); in the assay on DMS-273 it was 15.1 µM (inactive); in the assay with KM-20L2, 14.1 µM (inactive). Besides, the GI50 was 17.5 µM (inactive) in the assay with M19-MEL, 12.7 µM (inactive) with DMS-114 and 23.3 µM (inactive) with HOP-18.

Regarding `O=[N+]([O-])c1cccc(Nc2nc(Cl)nc(Cl)n2)c1`, the GI50 in the assay on DLD-1, in the assay with SNB-78, in the assay on LXFL 529, in the assay on RXF 631, in the assay on DMS-273 and in the assay on KM-20L2 was > 100 µM (inactive) in each case. In the assay with M19-MEL, the GI50 is > 100 µM (inactive).

In the case of `COc1ccccc1-c1cc(=O)c2ccccc2[nH]1`, the GI50 in the assay with DLD-1 was > 100 µM (inactive); in the assay on SNB-78, > 100 µM (inactive); with LXFL 529, > 100 µM (inactive); in the assay with DMS-273, 57.9 µM (inactive); in the assay on KM-20L2, > 100 µM (inactive); in the assay with M19-MEL, > 100 µM (inactive).

Consider `Oc1ccc2c(c1)CC[N+]1=C2CCC2CCCC21` (configuration not stated) [QUINDONIUM BROMIDE], for which the GI50 with DLD-1, with LXFL 529, in the assay with DMS-273, in the assay on M19-MEL and with DMS-114 was > 100 µM (inactive) each time.

Turning to `O=S(O)CCCSSCCCCSSCCCS(=O)O`, the GI50 in the assay with DLD-1, in the assay on SNB-78, with LXFL 529, in the assay with DMS-273, in the assay with KM-20L2 and in the assay on M19-MEL was > 100 µM (inactive) in each case. For the same molecule, the GI50 in the assay with DMS-114 and in the assay with HOP-18 was > 100 µM (inactive) throughout.

`CCOc1ccc(NC(=O)CC2SC(Nc3ccc(Cl)cc3)=NC2=O)cc1` (configuration not stated): the GI50 is 36 µM (inactive) in the assay with DLD-1; 41.8 µM (inactive) in the assay on LXFL 529; > 100 µM (inactive) in the assay with RXF 631; > 100 µM (inactive) in the assay on DMS-273; > 100 µM (inactive) in the assay with KM-20L2; > 100 µM (inactive) in the assay on M19-MEL. The GI50 in the assay on DMS-114 and with HOP-18 was > 100 µM (inactive) each time.

Turning to `NCCSCC(N)C(=O)O` (configuration not stated), the GI50 with DLD-1, with SNB-78, in the assay on LXFL 529, with DMS-273, in the assay on KM-20L2 and with M19-MEL was > 497 µM (inactive) throughout. Further, in the assay on DMS-114, the GI50 is > 497 µM (inactive).

As for `O=c1/c(=C/c2ccc3c(c2)OCO3)sc2nnc(Cc3ccccc3)n12`, the GI50 with DLD-1, with SNB-78, with LXFL 529, with DMS-273, in the assay with KM-20L2 and with M19-MEL was > 100 µM (inactive) in each case. The GI50 with DMS-114 is > 100 µM (inactive); with HOP-18, 88.1 µM (inactive).
